Measurements as given in patent publication US11980598B2, “N-(2-(substituted-naphth-1-yl)ethyl) substituted amide compound, preparation and uses thereof” (BEIJING GREATWAY PHARMACEUTICAL TECHNOLOGY CO., LTD., priority 2017, dated 2024).

Key:
Format in all cases: in vivo
Kunming mice [1] = assay: Forced mouse swimming test; details: 10 mg/kg intraperitoneal, 3 days, last 4 of 6 min
Method: (§1) Animals: Kunming mice, male, body weight 18-22 g, SPF grade; SD rats, male, body weight 150-180 g, SPF grade. The test was carried out after acclimatization, and the animal was fasted for 12 hours before the test.
(§2) All drugs for the test were suspended and dispersed in a 1% aqueous solution of hydroxypropyl methylcellulose (HPMC), and shaken well before use. […] The doses for administration were all 10 mg/kg. For the concentration and volume for administration, see J Psychiatry Neurosci 2004; 29(2):126-133. The mice were intraperitoneally administered in a volume of 0.5 mL/20 g; and the rats were administered by i.g. in a volume of 2 mL/100 g.
Animal grouping and administration method were the same as those in the tail suspension test in mice. The mice were placed in a round glass vessel with a height of 20 cm, an inner diameter of 12 cm, a water depth of 10 cm and a water temperature of 25° C.

Kunming mice [2] = assay: Acute toxicity test of mouse
Method: Mice were administered by i.g. at doses of 5000 mg/kg and 2000 mg/kg. The drugs were dispersed with a 1% aqueous solution of hydroxypropyl methylcellulose (HPMC), and the administration volume was calculated in accordance with 0.2 mL/10 g.

SD rats [3] = assay: Forced rat swimming test; details: 10 mg/kg i.g., 3 days, last 5 of 6 min
Method: as §1, §2
Rats were randomly divided into groups according to weight balance. Rats were administered by i.g. for three consecutive days, once a day. One hour after administration on the third day, the forced swimming test was performed. The rats were placed in a round glass jar with a height of 40 cm, an inner diameter of 18 cm, a water depth of 23 cm, and a water temperature of 25° C. The rats were allowed to swim for 6 minutes, and the accumulated immobility time in the last 5 minutes was recorded.

chronic stress rat = assay: Chronic unpredictable stress model of rat: open-field activity test; details: stress rats, day 28, 5 min
Method: Animals: SD rats, male, weighing 150-180 g, SPF grade.
Formulation and administration mode of drugs: All drugs for the test were suspended and dispersed with a 0.5% aqueous solution of CMC-Na, and shaken well before use. The rats were administered by i.g. at a volume of 10 mL/kg.
Rats were acclimatized for 3 days after purchase. First, 48 h of sucrose training was performed. After the training, a sucrose baseline test was performed. The rats were randomly and evenly grouped according to sucrose preference. Then, (dl) a 4-week chronic unpredictable stress (CUS) procedure was performed with the following stress methods: (1) food deprivation (fasting); (2) water deprivation; (3) stroboflash; (4) overnight illumination; (5) wet feeding (200 ml of water was added to 150 g of sawdust bedding); (6) noise stimulation (110 dB), 1 h; (7) swimming in cold water (the water temperature was 10° C.); (8) cage tilt (45 degrees of inclination); (9) tail pinch (at 1 cm away from the tail root) for 6 min; (10) restraint for 1-2 h. One of the above stress methods was used randomly every day, but water deprivation and fasting were separated. The corresponding drugs (including the blank control group and the positive drug group) were given 1 h before the stress in the morning every day. Behavior test was performed after the end of the chronic stress. d25, sucrose preference; d28, open-field; d31, novelty-suppressed feeding test.
On the 28th day of the stress program, the rats were placed in the middle compartment of an open chamber, and a 60 W light bulb was placed 45 cm directly above them. The activities of the rats were observed within 5 minutes, including the number of times crossing a compartment horizontally (the number of times crossing into an adjacent compartment with three or more claws), and the number of times rearing (the number of times the forelimbs are more than 1 cm off the ground). Note: the test environment of the test should be kept as quiet as possible; the rats should be placed in the same position and direction each time; and the animal's excretion should be removed after each test.

SD rats [4] = assay: Anxiety behavior model of repeatedly administrated rat: novelty-suppressed feeding test; details: D12
Method: The requirements for test animals, drug formulation and administration were the same as those of the rat chronic mild stress model.
Instruments: Vogel drinking anxiety device for rat and O-maze device for rat were manufactured by Shanghai XinRuan Company. The rat feeding chamber was a home-made white plastic box (60×45×25 cm).
The rats were administrated continuously by i.g. once a day. A novelty-suppressed feeding test, a Vogel drinking conflict test, and an O-maze test were performed on a different day, respectively. Each behavior test was performed at 9:00-12:00, and the administration time was 16:00-17:00. The test process was as follows: D12, novelty-suppressed feeding test (animals were fasted for 48 hours before the test); D18, Vogel drinking conflict test (animals were banned from water for 48 hours before the test); D21, O-maze test.
Common paddings with a thickness of 1.5 cm were placed at the floor of the rat feeding chamber, and six equal-sized food pellets were placed in the center. During the test, the rats were individually placed in a fixed position of the feeding chamber, and observed for 5 minutes. The time from rat entry to the start of biting or chewing the food was recorded with a stopwatch.

SMILES	Immobility time (Kunming mice [1])	Acute reaction after single administration (Kunming mice [2]; mice, 2000 mg/kg i.g.)	Adverse reactions during 14-day observation (Kunming mice [2]; mice, 2000 mg/kg i.g.)	Body weight compared with the blank group (Kunming mice [2]; mice, 2000 mg/kg i.g.)	Acute reaction after single administration (Kunming mice [2]; mice, 5000 mg/kg i.g.)	Immobility time (SD rats [3])	Number of times crossing a compartment horizontally (chronic stress rat; 10 mg/kg i.g. daily)	Number of times rearing (chronic stress rat; 10 mg/kg i.g. daily)	Number of times crossing a compartment horizontally (chronic stress rat; 20 mg/kg i.g. daily)	Number of times rearing (chronic stress rat; 20 mg/kg i.g. daily)	Number of times crossing a compartment horizontally (chronic stress rat; 40 mg/kg i.g. daily)	Number of times rearing (chronic stress rat; 40 mg/kg i.g. daily)	Feeding latency (SD rats [4]; 10 mg/kg i.g. once a day)	Feeding latency (SD rats [4]; 20 mg/kg i.g. once a day)	Feeding latency (SD rats [4]; 40 mg/kg i.g. once a day)	further results
[2H]C([2H])([2H])Oc1cc2c(CCNC(C)=O)cccc2cc1Cl [Example 1, N-(2-(6-chloro-7-deuteromethoxy-naphthalen-1-yl)ethyl)acetamide]	73.0 ± 18.2 s	the activity of the mice became slightly smaller but there were no obvious adverse reactions	no obvious adverse reactions within 14 days after the administration	no significant difference in body weight compared with the blank group	the mice began to fall into a coma 15 minutes after the administration, and within 24 hours the mice all awakened and returned to normal	51.0 ± 32.4 s	36.4 ± 4.2	14.6 ± 1.7	36.5 ± 2.9	15.9 ± 1.1	34.9 ± 3.0	17 ± 1.5	141 ± 17 s	124 ± 18 s	120 ± 14 s	Adverse reactions during 14-day observation (Kunming mice [2]; mice, 5000 mg/kg i.g.): no obvious adverse reactions within 14 days after the administration; Body weight compared with the blank group (Kunming mice [2]; mice, 5000 mg/kg i.g.): no significant difference in body weight compared with the blank group; Safety compared with control drug (Kunming mice [2]; mouse model, overall): safer than the control drug Agomelatine; Number of times crossing a compartment horizontally (chronic stress rat; 5 mg/kg i.g. daily): 36.8 ± 4.4; Number of times rearing (chronic stress rat; 5 mg/kg i.g. daily): 15.1 ± 1.3; Feeding latency (SD rats [4]; 5 mg/kg i.g. once a day): 232 ± 23 s
COc1ccc2cccc(CCNC(C)=O)c2c1 [Agomelatine, reference compound]	113.5 ± 26.6 s	the mice all fell into a coma 15 minutes after the administration	no obvious adverse reactions within 14 days after the administration	the body weight was lighter on the first and second days after the administration with a significant difference	the mice all fell into a coma 15 minutes after the administration and died successively after 12 hours	73.5 ± 38.5 s	33.4 ± 4.2	18.1 ± 1.1	33.9 ± 2.4	16.7 ± 1.8	38.9 ± 3.6	17.3 ± 1.1	208 ± 26 s	163 ± 25 s	124 ± 25 s	Number of mice that died within 12 hours (Kunming mice [2]; mice, 2000 mg/kg i.g., group of 10): 4 mice
